PMC9090415, “Discovery of small molecule inhibitors of Plasmodium falciparum apicoplast DNA polymerase” (Journal of Enzyme Inhibition and Medicinal Chemistry, 2022)

Target: T1, bacteriophage T4 DNA polymerase (Enterobacteria phage T4, UniProt P04415)
T1 construct: made in house
T1 sequence (P04415 1-898): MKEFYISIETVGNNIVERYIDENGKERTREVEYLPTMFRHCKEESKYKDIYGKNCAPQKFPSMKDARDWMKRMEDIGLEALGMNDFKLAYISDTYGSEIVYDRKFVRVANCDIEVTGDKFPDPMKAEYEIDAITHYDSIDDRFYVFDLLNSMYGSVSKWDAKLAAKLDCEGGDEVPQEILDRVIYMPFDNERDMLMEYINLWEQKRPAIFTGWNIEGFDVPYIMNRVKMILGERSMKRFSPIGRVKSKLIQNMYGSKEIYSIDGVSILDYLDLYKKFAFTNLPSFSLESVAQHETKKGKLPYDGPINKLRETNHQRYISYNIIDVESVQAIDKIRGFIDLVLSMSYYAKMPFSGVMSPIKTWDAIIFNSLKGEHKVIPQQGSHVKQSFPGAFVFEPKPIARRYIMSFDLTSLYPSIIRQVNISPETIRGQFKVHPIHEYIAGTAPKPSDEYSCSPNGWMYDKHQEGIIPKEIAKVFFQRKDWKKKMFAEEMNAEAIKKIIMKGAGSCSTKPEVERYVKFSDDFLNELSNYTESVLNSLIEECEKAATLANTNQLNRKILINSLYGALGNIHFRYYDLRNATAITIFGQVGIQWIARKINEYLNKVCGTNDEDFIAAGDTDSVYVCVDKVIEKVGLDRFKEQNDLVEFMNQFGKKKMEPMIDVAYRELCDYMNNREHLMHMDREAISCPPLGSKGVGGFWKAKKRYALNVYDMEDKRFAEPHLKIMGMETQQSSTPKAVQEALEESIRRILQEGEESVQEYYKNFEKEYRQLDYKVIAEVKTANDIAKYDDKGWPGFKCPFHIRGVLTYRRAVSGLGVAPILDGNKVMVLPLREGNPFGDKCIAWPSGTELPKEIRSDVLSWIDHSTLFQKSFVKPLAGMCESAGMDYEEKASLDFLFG
Assay: Counter-screen against bacteriophage T4 DNA polymerase
Type: biochemical
Conditions: for % inhibition T4 10' 2.5 / % inhibition T4 10' 5 / % inhibition T4 10' 10 / % inhibition T4 10' 20 / % inhibition T4 10' 40 / % inhibition T4 10' 80: read at 10'
Summary of the method: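 IC50 values come from dose-response testing of each compound against T4 DNA polymerase. This B-family polymerase was purified in-house and used as the counter-screen.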

Structure (SMILES): O=c1[nH]c2ccc([N+](=O)[O-])cc2c(-c2ccccc2)c1Sc1nc2ccccc2o1 [KU0067471]
- % inhibition T4 10' (DRC-2, concentration 10): 35%
- % inhibition T4 10' (DRC-2, concentration 20): 35%
- % inhibition T4 40' (DRC-2, concentration 10): 36%
- % inhibition T4 40' (DRC-2, concentration 40): 48%
- % inhibition T4 40' (DRC-2, concentration 80): 47%
- % inhibition T4 90' (DRC-2, concentration 2.5): 11%
- % inhibition T4 90' (DRC-2, concentration 20): 36%
- % inhibition T4 90' (DRC-2, concentration 40): 47%
- % inhibition T4 90' (DRC-2, concentration 80): 48%
- % inhibition T4 180' (DRC-2, concentration 5): 11%
- % inhibition T4 180' (DRC-2, concentration 80): 47%

Structure (SMILES): Nc1cc(Oc2ccc(O)c(N)c2)ccc1O [KU0034728]
- % inhibition T4 10' 2.5 (DRC-1, concentration 2.5): 10.6184%
- % inhibition T4 10' 5 (DRC-1, concentration 5): 9.797%
- % inhibition T4 10' 10 (DRC-1, concentration 10): 12.6946%
- % inhibition T4 10' 20 (DRC-1, concentration 20): 6.887%
- % inhibition T4 10' 40 (DRC-1, concentration 40): 15.6951%
- % inhibition T4 10' 80 (DRC-1, concentration 80): 21.8837%
- % inhibition T4 70' 2.5 (DRC-1, read at 70', concentration 2.5): 10.2077%
- % inhibition T4 70' 5 (DRC-1, read at 70', concentration 5): 9.3179%
- % inhibition T4 70' 10 (DRC-1, read at 70', concentration 10): 12.3114%
- % inhibition T4 70' 20 (DRC-1, read at 70', concentration 20): 7.7965%
- % inhibition T4 70' 40 (DRC-1, read at 70', concentration 40): 14.4419%
- % inhibition T4 70' 80 (DRC-1, read at 70', concentration 80): 19.0676%
- % inhibition T4 130' 2.5 (DRC-1, read at 130', concentration 2.5): 10.8947%
- % inhibition T4 130' 5 (DRC-1, read at 130', concentration 5): 9.975%
- % inhibition T4 130' 10 (DRC-1, read at 130', concentration 10): 11.1726%
- % inhibition T4 130' 20 (DRC-1, read at 130', concentration 20): 8.154%
- % inhibition T4 130' 40 (DRC-1, read at 130', concentration 40): 14.6568%
- % inhibition T4 130' 80 (DRC-1, read at 130', concentration 80): 18.4293%
- % inhibition T4 10' 2.5 (DRC-2, concentration 2.5): -8.57%
- % inhibition T4 10' 5 (DRC-2, concentration 5): -11%
- % inhibition T4 10' 10 (DRC-2, concentration 10): -3.21%
- % inhibition T4 10' 20 (DRC-2, concentration 20): -7%
- % inhibition T4 10' 40 (DRC-2, concentration 40): 3.18%
- % inhibition T4 10' 80 (DRC-2, concentration 80): 12%
- % inhibition T4 40' 2.5 (DRC-2, read at 40', concentration 2.5): -8%
- % inhibition T4 40' 5 (DRC-2, read at 40', concentration 5): -11%
- % inhibition T4 40' 10 (DRC-2, read at 40', concentration 10): -5.5%
- % inhibition T4 40' 20 (DRC-2, read at 40', concentration 20): -8%
- % inhibition T4 40' 40 (DRC-2, read at 40', concentration 40): -2.76%
- % inhibition T4 40' 80 (DRC-2, read at 40', concentration 80): -1.54%
- % inhibition T4 90' 2.5 (DRC-2, read at 90', concentration 2.5): -7%
- % inhibition T4 90' 5 (DRC-2, read at 90', concentration 5): -9.49%
- % inhibition T4 90' 10 (DRC-2, read at 90', concentration 10): -3.47%
- % inhibition T4 90' 20 (DRC-2, read at 90', concentration 20): -7%
- % inhibition T4 90' 40 (DRC-2, read at 90', concentration 40): -4.46%
- % inhibition T4 90' 80 (DRC-2, read at 90', concentration 80): -9%
- % inhibition T4 180' 2.5 (DRC-2, read at 180', concentration 2.5): -11%
- % inhibition T4 180' 5 (DRC-2, read at 180', concentration 5): -15%
- % inhibition T4 180' 10 (DRC-2, read at 180', concentration 10): -8%
- % inhibition T4 180' 20 (DRC-2, read at 180', concentration 20): -11%
- % inhibition T4 180' 40 (DRC-2, read at 180', concentration 40): -7.51%
- % inhibition T4 180' 80 (DRC-2, read at 180', concentration 80): -14%

Structure (SMILES): O=C(NNC(=O)c1ccc(Cl)cc1)C(=O)NNC(=O)c1ccc(Cl)cc1 [Molecule 25, O=C(C(=O)NNC(=O)c1ccc(cc1)Cl)NNC(=O)c1ccc(cc1)Cl]
- % inhibition T4 10' (DRC-2, concentration 80): -22%
- % inhibition T4 40' (DRC-2, concentration 5): -13%
- % inhibition T4 40' (DRC-2, concentration 20): -23%
- % inhibition T4 40' (DRC-2, concentration 40): -17%
- % inhibition T4 90' (DRC-2, concentration 5): -13%
- % inhibition T4 90' (DRC-2, concentration 20): -22%
- % inhibition T4 180' (DRC-2, concentration 5): -17%
- % inhibition T4 180' (DRC-2, concentration 20): -23%
- % inhibition T4 180' (DRC-2, concentration 40): -17%

Structure (SMILES): O=C1CCCC2=C1C(c1ccccn1)C1=C(CCCC1=O)O2 [KU0194228]
- % inhibition T4 10' (DRC-2, concentration 10): 18%
- % inhibition T4 40' (DRC-2, concentration 20): 18%
